The structures appear in SMILES notation.

As usually defined, the Km is the substrate concentration at which the rate is half of its maximum.

The experiment deals with T1, Gp Hcdh (Unk-9; G. pamelaeae HCA dehydroxylase).
T1 construct: native untagged enzyme purified from G. pamelaeae 3C grown with HCA (ammonium sulfate, HIC, AEC, SEC); two subunits; catalytic subunit 770 aa; one Mo per protein (bis-MGD); with Hydrocaffeic acid dehydroxylase accessory subunit
Kind of experiment: continuous spectrophotometric assay, methyl viologen oxidation at […] nm, Michaelis-Menten fit of initial rates. Particulars: 100 nM enzyme, anaerobic, 50 mM MOPS pH 7.0, 300 mM NaCl, 200 uM methyl viologen, 100 uM sodium dithionite, HCA 0.0625-4 mM. The format is biochemical, Gordonibacter pamelaeae.

For `O=C(O)CCc1ccc(O)c(O)c1` [HCA, 3,4-dihydroxyhydrocinnamic acid], the Km amounted to 240 µM.
